Results from PMC11876671, “Investigating blood–brain barrier penetration and neurotoxicity of natural products for central nervous system drug development” (Scientific Reports, 2025).
Like-named read-outs stand apart in the source and are kept apart here.

How the values were obtained:
[1] = system: GFP-labeled iPSC-derived human cortical glutamatergic neurons; assay: cells; assay type: cell-based
[2] = system: GFP-labeled iPSC-derived human cortical glutamatergic neurons
in vitro = settings: PAMPA, PAMPA-BBB Pe
[3] = system: GFP-labeled iPSC-derived human cortical glutamatergic neurons; assay: cells; settings: Neuron, 48 h
[4] = system: glioblastoma multiforme (GBM); settings: mouse, in vivo, ip; cited from earlier work
[5] = Homo sapiens, Neuron, total neurite length, 48 h treatment, read-out: TNL AC50 (48 h)
[6] = Table 1, 60 min, room temperature, 0.05 mM
[7] = Table S1, 60 min, room temperature, 0.05 mM
[8] = Table S2: compounds exhibiting moderate to high PAMPA-BBB permeability
[9] = read-out: Viability AC50 (48 h)
[10] = Homo sapiens, Neuron, rounded values, read-out: AC50 (neurite outgrowth inhibition)
[11] = read-out: Viability AC50 (48hr)
[12] = Homo sapiens, Neuron, Table S1, total neurite length, 48 hr, head prints no unit, µM per Table 1 and Fig. 5, read-out: TNL AC50 (48 hr)

SMILES | AC50 [1, 5] | PAMPA-BBB Pe [6] | Papp (in vitro; [7]) | AC50 [3, 9] | PAMPA-BBB Pe [8] | AC50 [3, 11] | AC50 [1, 12] | other results
COc1cc(/C=C/C(=O)N2CCC=CC2=O)cc(OC)c1OC [Piperlongumine] | 3.74 µM | 90.26 10 × 10^− 6 cm/sec | 90.3 ×10⁻⁶ cm/s |  |  |  |  | Viability AC50 (48 h) ([2]; 48 h treatment): Inactive; Papp (in vitro; [8]): 90 ×10⁻⁶ cm/s
O=c1oc2c(O)c(O)cc3c(=O)oc4c(O)c(O)cc1c4c23 [Ellagic acid] | 3.05 µM | 119.5 10 × 10^− 6 cm/sec | 120 ×10⁻⁶ cm/s | 4000 nM | 120 10^-6 cm/sec |  |  | inhibition of cortical neurite outgrowth (total neurite length) ([1]; 24 and 48 h treatment, in words): inhibited cortical neurite outgrowth; AC50 [1, 10]: 3.1 µM; effect on number of objects ([2]; 48 h treatment, in words): minimal effects
COc1cc(-c2cc(=O)c3c(O)cc(O)cc3o2)ccc1O [Chrysoeriol] | 2.22 µM | 178.56 10 × 10^− 6 cm/sec | 179 ×10⁻⁶ cm/s |  |  |  |  | AC50 [1, 10]: 2.2 µM; Viability AC50 (48 h) ([2]; 48 h treatment): inactive
CC(=O)O[C@H]1[C@H]2O[C@]23[C@@H]2CC[C@@H]4C[C@@H](O)CC[C@]4(C)[C@H]2CC[C@]3(C)[C@H]1c1ccc(=O)oc1 [Cinobufagin] |  |  |  | 93 nM |  |  |  | decrease in luminescence intensity of the brain tumor [4]: 70%; AC50 ([1]; Homo sapiens, Neuron, 48 h, read-out: TNL AC50 (48 h)): 0.618 µM; AC50 ([1]; Homo sapiens, Neuron, read-out: AC50 (neurite outgrowth inhibition)): 0.6 µM; Papp (in vitro): 45.4 ×10⁻⁶ cm/s
COc1ccc(-c2cc(=O)c3ccccc3o2)cc1OC [3’,4’-dimethoxyflavone] | 0.759 µM | 249.21 10 × 10^− 6 cm/sec | 249 ×10⁻⁶ cm/s |  | 249 10^-6 cm/sec |  |  | AC50 [1, 10]: 0.7 µM; Viability AC50 (48 h) ([2]; 48 h treatment): inactive
O=c1c(O)c(-c2ccccc2)oc2ccccc12 [3-Hydroxyflavone] | 2.97 µM | 181.17 10 × 10^− 6 cm/sec | 181 ×10⁻⁶ cm/s | 1840 nM |  |  |  | 
CC[C@]1(O)C[C@H]2CN(CCc3c([nH]c4ccccc34)[C@@](C(=O)OC)(c3cc4c(cc3OC)N(C=O)[C@H]3[C@@](O)(C(=O)OC)[C@H](OC(C)=O)[C@]5(CC)C=CCN6CC[C@]43[C@@H]65)C2)C1 [Vincristine, reference compound] |  |  |  |  |  |  |  | AC50 ([1]; read-out: TNL AC50 (48 hr)): 30.4 µM; AC50 [2, 11]: 37200 nM; PAMPA-BBB Pe (PAMPA): 21.19 10^-6 cm/sec
COc1cc(O)c2c(c1)C1OC1C[C@H](O)[C@H](O)C(=O)C=CC[C@H](C)OC2=O (stereo partly drawn) [NCGC00183677-03] |  |  | 69.3 ×10⁻⁶ cm/s |  | 69 10^-6 cm/sec | 28200 nM | 35.9 µM | 
C/C(=C\c1csc(C)n1)[C@@H]1C[C@@H]2O[C@]2(C)CCC[C@H](C)[C@H](O)[C@@H](C)C(=O)C(C)(C)[C@@H](O)CC(=O)O1 [Patupilone] | 0.007 µM | 10.52 10 × 10^− 6 cm/sec | 10.5 ×10⁻⁶ cm/s |  |  |  | 0.0068 µM | Viability AC50 (48 h) ([2]; 48 h treatment): inactive; Papp (in vitro; [8]): 11 ×10⁻⁶ cm/s
CC(C)c1cc2c(c(O)c1O)[C@@]13CCCC(C)(C)[C@@H]1C[C@@H]2OC3=O [Carnosol] |  |  | 32.8 ×10⁻⁶ cm/s |  | 33 10^-6 cm/sec | 26400 nM | 17.8 µM | 
CN[C@@H]1C[C@H]2O[C@@](C)([C@@H]1OC)n1c3ccccc3c3c4c(c5c6ccccc6n2c5c31)C(=O)N[C@H]4O [7-hydroxystaurosporine (UCN-01), 7-hydroxystaurosporine] |  |  | 158 ×10⁻⁶ cm/s |  | 158 10^-6 cm/sec | 7920 nM | 5.74 µM | 
COc1ccc2c(c1OC)C(=O)O[C@@H]2[C@H]1c2c(cc3c(c2OC)OCO3)CCN1C [Noscapine, reference compound] | 1.06 µM |  |  | 11600 nM |  | 11600 nM | 1.06 µM | AC50 [1, 10]: 1.1 µM; PAMPA-BBB Pe (PAMPA): 74.54 10 × 10^− 6 cm/sec; Papp (in vitro): 74.5 ×10⁻⁶ cm/s
COc1ccc(/C=C\c2cc(OC)c(OC)c(OC)c2)cc1O [Combretastatin A4] | 0.028 µM | 315.59 10 × 10^− 6 cm/sec | 316 ×10⁻⁶ cm/s | 47 nM | 316 10^-6 cm/sec | 47 nM | 0.0277 µM | 
COc1cc2c(OC(C)=O)c3c(c(-c4ccc5c(c4)OCO5)c2cc1OC)C(=O)OC3 [NCGC00161918-01] |  |  | 349 ×10⁻⁶ cm/s |  | 349 10^-6 cm/sec | 9920 nM | 3.1 µM | 
